Where two headings read alike, the source gives them in different places.
Assays:
[1] = Study 2 Part A: multiple-dose (14 days) pharmacokinetics; assay type: in vivo, human; conditions: for AUC(0-t): read-out: AUC0-24h; for Tmax: median; for concentration at 14 day: read-out: Cavg; for half-life: po, half-life calculated by accumulation ratio, read-out: Effective t1/2 (converted)
Protocol: The 2-part multiple-dose study, Study 2, determined the safety and tolerability of repeated daily doses of Compound 1 and investigated the effects on biomarkers of relevance for the treatment of alcohol dependence.
PK were also evaluated in the multiple-dose, dose-escalation study, Study 2. In Part A of the study, subjects were divided into 3 cohorts and received 50, 150, or 200 mg Compound 1 or placebo for 14 consecutive days (at least 6 subjects received Compound 1 and 2 subjects received placebo in each cohort). […] All dosing occurred in the fed state. An assessment of diurnal cortisol levels, plus when under conditions of glucose clamp, were also carried out both prior to and during the dosing period.
Consistent with the single-dose study (Study 1), concentrations appeared to decline in a bi-exponential manner, characterized by a rapid decrease within the first 24 hours. […] The Tmax appeared to be consistent across doses. Overall half-lives, weight normalized CL/F and V/F were consistent for 150 and 200 mg. However, the values for these latter 2 parameters were almost doubled at the 50-mg dose level. Variability (CV%) for apparent clearance and volume of distribution were large and not reduced with weight-normalization.
Table 8 presents the results of the dose proportionality assessment for the AUC0-24 and Cmax over the tested dose range.

CRF1 receptor = target: T1, CRF1 receptor (Homo sapiens, UniProt P34998); experiment: Phase 2 study in adults with classic CAH: ACTH, 17-OHP, androstenedione response; assay type: in vivo; conditions: patients with classic CAH
T1 construct: from tissue; host or cells: Human patients in vivo (anterior pituitary corticotrophs)
T1 sequence (P34998 24-415): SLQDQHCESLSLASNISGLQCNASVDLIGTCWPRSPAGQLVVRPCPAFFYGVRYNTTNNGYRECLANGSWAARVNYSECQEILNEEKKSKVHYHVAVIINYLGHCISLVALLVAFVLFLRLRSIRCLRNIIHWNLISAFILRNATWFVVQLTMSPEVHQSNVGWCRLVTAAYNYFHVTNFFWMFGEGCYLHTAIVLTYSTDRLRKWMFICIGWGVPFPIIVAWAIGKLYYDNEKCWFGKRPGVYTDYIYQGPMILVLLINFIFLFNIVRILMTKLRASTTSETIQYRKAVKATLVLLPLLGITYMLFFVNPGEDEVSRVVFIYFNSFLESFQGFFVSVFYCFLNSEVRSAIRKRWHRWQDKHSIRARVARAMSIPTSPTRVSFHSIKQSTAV
From the text: Cohort A of the Phase 2 Study includes a 6-week, multiple-dose, dose escalation study of Compound 1 for the treatment of adults with classic CAH. After screening, eligible patients will be enrolled into a 6-week treatment period followed by a 4-week washout/safety follow-up period.
This cohort will be conducted in approximately 9 patients, who will receive Compound 1 daily for up to 6 weeks. Compound 1 will be administered as an oral daily dose. Patients will undergo titration of Compound 1 through three escalating dosage strengths at 2-week intervals. Patients will have overnight PK/PD assessments performed at baseline, which include an pre-dose overnight assessment and a post-dose overnight assessment for PK/PD following administration of the first dose. At the end of each 2-week dosing period, patients will return for single overnight visits for steady-state PK/PD assessments. A follow-up outpatient visit will occur 30 days after their last dose. Upon completion of the initial cohort (Cohort A), the study will proceed to a multiple ascending dose (MAD) design with up to 3 sequential cohorts (Cohorts B, C, and D) to further evaluate the safety, PK, and PD of various SPROO1 dosing regimens and to identify an optimal dose regimen. Each cohort will undergo a 2-week run-in period, a 2-week treatment period, and a 30-day washout and safety follow-up period. During the run-in period, which will occur during screening, subjects will document in a paper diary each dose of glucocorticoid medication taken, the time of each meal, and the time they went to bed and woke up each day, to ensure compliance with background glucocorticoid regimens and the stability of their daily routine.
• 1. To evaluate the safety of Compound 1 in subjects with CAH. • 2. To assess the efficacy of Compound 1 in subjects with classic CAH as measured by percent and absolute change in 17-OHP compared to baseline.
• 3. To explore the dose(s) of Compound 1 that cause pharmacodynamics changes in plasma concentrations of ACTH, androstenedione, and testosterone, as measured by the absolute and percent change from baseline by dose. • 4. To determine pharmacokinetics of Compound 1 in subjects with CAH. • 5. To explore potential relationships between pharmacodynamics and pharmacokinetics.

[2] = human, plasma, oral, 50 mg, 50 mg daily, Day 14, geometric mean
[3] = human, plasma, oral, 50 mg, Day 1, geometric mean
[4] = human, plasma, oral, 150 mg, 150 mg daily, Day 14, geometric mean
[5] = human, plasma, oral, 150 mg, Day 1, geometric mean
[6] = human, plasma, oral, 200 mg, 200 mg daily, Day 14, geometric mean
[7] = human, plasma, oral, 200 mg, Day 1, geometric mean
[8] = human, plasma, oral, 50 mg daily, Day 14, geometric mean
[9] = human, plasma, oral, 150 mg daily, Day 14, geometric mean
[10] = human, plasma, oral, 200 mg daily, Day 14, geometric mean

RA (accumulation ratio, Day 14 AUC0-24/Day 1 AUC0-24) ([1]; 50 mg daily): 2.80
CLaa/F ([1]; 50 mg daily, Day 14, geometric mean): 183 L/h
WT-norm Claa/F ([1]; 50 mg daily, Day 14, weight normalized): 2.88 L/h/kg
RA (accumulation ratio, Day 14 AUC0-24/Day 1 AUC0-24) ([1]; 150 mg daily): 2.51
CLaa/F ([1]; 150 mg daily, Day 14, geometric mean): 101 L/h
WT-norm Claa/F ([1]; 150 mg daily, Day 14, weight normalized): 1.42 L/h/kg
RA (accumulation ratio, Day 14 AUC0-24/Day 1 AUC0-24) ([1]; 200 mg daily): 3.65
CLaa/F ([1]; 200 mg daily, Day 14, geometric mean): 98 L/h
WT-norm Claa/F ([1]; 200 mg daily, Day 14, weight normalized): 1.50 L/h/kg
Cmax [1, 2]: 0.0503 µg/mL
AUC(0-t) [1, 2]: 0.273 µg·h/mL
Vd/F at 14 days ([1]; human, plasma, oral, 50 mg, 50 mg daily, Day 14, geometric mean, read-out: Vss/F): 12900 L
Tmax ([1]; human, plasma, oral, 50 mg, 50 mg daily, Day 14): 5 h
Vd/F at 14 days ([1]; human, plasma, oral, 50 mg, 50 mg daily, Day 14, weight normalized, read-out: WT-norm Vss/F): 204 L/kg
Cmax [1, 3]: 0.0227 µg/mL
AUC(0-t) [1, 3]: 0.0976 µg·h/mL
Tmax ([1]; human, plasma, oral, 50 mg, Day 1): 4.52 h
Cmax [1, 4]: 0.222 µg/mL
AUC(0-t) [1, 4]: 1.48 µg·h/mL
Vd/F at 14 days ([1]; human, plasma, oral, 150 mg, 150 mg daily, Day 14, geometric mean, read-out: Vss/F): 6170 L
Vd/F at 14 days ([1]; human, plasma, oral, 150 mg, 150 mg daily, Day 14, geometric mean, read-out: Vz/F): 17600 L
Tmax ([1]; human, plasma, oral, 150 mg, 150 mg daily, Day 14): 5 h
Vd/F at 14 days ([1]; human, plasma, oral, 150 mg, 150 mg daily, Day 14, weight normalized, read-out: WT-norm Vss/F): 86.5 L/kg
Cmax [1, 5]: 0.127 µg/mL
AUC(0-t) [1, 5]: 0.59 µg·h/mL
Tmax ([1]; human, plasma, oral, 150 mg, Day 1): 5 h
Cmax [1, 6]: 0.314 µg/mL
AUC(0-t) [1, 6]: 2.04 µg·h/mL
Vd/F at 14 days ([1]; human, plasma, oral, 200 mg, 200 mg daily, Day 14, geometric mean, read-out: Vss/F): 5080 L
Vd/F at 14 days ([1]; human, plasma, oral, 200 mg, 200 mg daily, Day 14, geometric mean, read-out: Vz/F): 16300 L
Tmax ([1]; human, plasma, oral, 200 mg, 200 mg daily, Day 14): 5 h
Vd/F at 14 days ([1]; human, plasma, oral, 200 mg, 200 mg daily, Day 14, weight normalized, read-out: WT-norm Vss/F): 77.4 L/kg
Cmax [1, 7]: 0.143 µg/mL
AUC(0-t) [1, 7]: 0.559 µg·h/mL
Tmax ([1]; human, plasma, oral, 200 mg, Day 1): 5 h
AUC(0-inf) [1, 8]: 0.98 µg·h/mL
concentration at 14 day [1, 8]: 0.0114 µg/mL
AUC(0-inf) [1, 9]: 4.68 µg·h/mL
concentration at 14 day [1, 9]: 0.0617 µg/mL
AUC(0-inf) [1, 10]: 5.66 µg·h/mL
concentration at 14 day [1, 10]: 0.085 µg/mL
half-life at 2 weeks ([1]; human, plasma, oral, following multiple daily dosing for 2 weeks): > 100 h
half-life ([1]; human, plasma, 50 mg daily, Day 14): 37.7 h
half-life ([1]; human, plasma, 150 mg daily, Day 14): 32.7 h
half-life ([1]; human, plasma, 200 mg daily, Day 14): 52 h
effect on morning rise in A4 (androstenedione) (CRF1 receptor): attenuates morning rise in A4
subjects with 17-OHP within the guideline range (1200 ng/dL) after treatment (CRF1 receptor): 50%
subjects with ACTH in the normal range after treatment (CRF1 receptor): 40%
subjects with Androstenedione within normal reference range after treatment (CRF1 receptor): 50%
subjects with more than 25% reduction in 17-OHP (CRF1 receptor): 50%
subjects with more than 25% reduction in ACTH (CRF1 receptor): 70%
subjects with more than 25% reduction in Androstenedione (CRF1 receptor): 60%
subjects with reduction in 17-OHP (CRF1 receptor): 80%
subjects with reduction in ACTH (CRF1 receptor): 80%
subjects with reduction in Androstenedione (CRF1 receptor; at various doses): 100%
Structure (SMILES): CCC(CC)c1cc(C)nc2c(-c3sc(N4CCOCC4)nc3Cl)c(C)nn12 [Compound 1, 4-(4-chloro-5-(2,5-dimethyl-7-(pentan-3-yl)pyrazolo[1,5-a]pyrimidin-3-yl)thiazol-2-yl)morpholine]

— patent US20200255436A1, “CORTICOTROPIN RELEASING FACTOR RECEPTOR ANTAGONISTS” (Spruce Biosciences, Inc., priority 2019, published 2020)
